Activity calls are given as the source filed them.
Legend:
SUMO-activating enzyme = SUMO-activating enzyme (Homo sapiens, UniProt Q9UBT2); test: SUMOylation inhibitor hit validation, confirmation, SUMOylation inhibitor project, biochemical, AlphaScreen (AID 2018); type: functional
Streptococcus = test: Group A Streptococcus viability loss, dose response, counter-screen for streptokinase expression inhibitor project, luminescence, BacTiterGlo (AID 1915); type: functional, organism-based;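 further: potency for reduction of bacterial viability or growth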
Exodeoxyribonuclease V = Exodeoxyribonuclease V (Escherichia coli (strain K12), UniProt P04993+P07648+P08394); test: E. coli RecBCD inhibitors, dose response, counter-screen for AddAB inhibitor project, absorbance, V66 E. coli, mutant T4 phage (AID 492957); type: functional, cell-based, Escherichia coli str. K-12 substr. MG1655
HEK293 [1] = test: NOD2 signaling inhibitors in MDP-stimulated cells, cell-based, uHTS, luminescence (AID 2001); type: functional; conditions: Homo sapiens
Streptokinase A = target: T1, Streptokinase A (Streptococcus pyogenes serotype M1, UniProt P10520); test: S. pyogenes streptokinase expression inhibitors, potency, dose response, plasminogen activation absorbance, OD405 (AID 1914); type: functional, Streptococcus pyogenes M1 GAS;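 further: secreted streptokinase activity via plasminogen activation per viability signal from cell pellet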
T1 sequence (P10520 whole entry): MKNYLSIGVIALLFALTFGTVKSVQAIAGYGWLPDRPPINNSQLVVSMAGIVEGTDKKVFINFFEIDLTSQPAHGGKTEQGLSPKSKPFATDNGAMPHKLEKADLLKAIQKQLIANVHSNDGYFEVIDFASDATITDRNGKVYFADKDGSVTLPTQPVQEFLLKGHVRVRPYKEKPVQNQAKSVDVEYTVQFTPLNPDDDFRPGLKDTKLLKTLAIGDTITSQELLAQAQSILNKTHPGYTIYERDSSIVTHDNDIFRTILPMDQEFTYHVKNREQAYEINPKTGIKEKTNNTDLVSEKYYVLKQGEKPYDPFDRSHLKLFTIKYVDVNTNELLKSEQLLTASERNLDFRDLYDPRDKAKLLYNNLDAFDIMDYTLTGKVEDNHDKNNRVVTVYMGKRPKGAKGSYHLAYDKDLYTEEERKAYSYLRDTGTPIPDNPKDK

[2] = Counterscreen for AddAB inhibitors: absorbance-based bacterial cell-based high throughput dose response assay for inhibitors of bacterial viability. [Related pubchem assays (depositor defined):AID435030, AID449728, AID449731, AID488942, AID488955, AID488956]; type: functional
HEK293 [3] = test: cells; type: functional, cell-based; conditions: Homo sapiens
INS1 = test: beta cell apoptosis inhibitors, cytokine rescue, dose response, luminescence, retest (AID 449756); type: functional, cell-based; conditions: Rattus norvegicus;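 further: cell death triggered by IL-1 beta plus TNF-alpha plus IFN-gamma mixture; protective hits raise ATP signal compared with cytokine alone wells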
HEK293 [4] = test: NOD1 signaling inhibitors, primary screen, cell-based, luminescence, uHTS (AID 1578); type: functional; conditions: Homo sapiens
[5] = system: Streptococcus sp. 'group A'; test: growth inhibition of control SK(-) GAS strain, dose response, counter-screen for streptokinase expression inhibitor project, luminescence, kanamycin, BacTiterGlo, confirmation (AID 1900); type: functional, organism-based
HEK293 [6] = test: cells; type: functional, cell-based; conditions: Homo sapiens; remark: listed apart in the source
cells [7] = test: cells
[8] = target: Eukaryotic translation initiation factor 4H (Homo sapiens, UniProt Q15056); test: human eIF4H binding inhibitors, primary screen, translation initiation inhibitor project, biochemical, uHTS, fluorescence polarization (AID 2012)
[9] = target: T2, Short transient receptor potential channel 4 (Mus musculus, UniProt Q9QUQ5); test: mouse TRPC4 channel inhibitors, dose response, cell-based, HEK293 TRPC4/mu-opioid, Fluo-4 calcium (AID 434942); type: functional;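 further: potency of inhibitors blocking the TRPC4 calcium response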
T2 sequence (Q9QUQ5 whole entry): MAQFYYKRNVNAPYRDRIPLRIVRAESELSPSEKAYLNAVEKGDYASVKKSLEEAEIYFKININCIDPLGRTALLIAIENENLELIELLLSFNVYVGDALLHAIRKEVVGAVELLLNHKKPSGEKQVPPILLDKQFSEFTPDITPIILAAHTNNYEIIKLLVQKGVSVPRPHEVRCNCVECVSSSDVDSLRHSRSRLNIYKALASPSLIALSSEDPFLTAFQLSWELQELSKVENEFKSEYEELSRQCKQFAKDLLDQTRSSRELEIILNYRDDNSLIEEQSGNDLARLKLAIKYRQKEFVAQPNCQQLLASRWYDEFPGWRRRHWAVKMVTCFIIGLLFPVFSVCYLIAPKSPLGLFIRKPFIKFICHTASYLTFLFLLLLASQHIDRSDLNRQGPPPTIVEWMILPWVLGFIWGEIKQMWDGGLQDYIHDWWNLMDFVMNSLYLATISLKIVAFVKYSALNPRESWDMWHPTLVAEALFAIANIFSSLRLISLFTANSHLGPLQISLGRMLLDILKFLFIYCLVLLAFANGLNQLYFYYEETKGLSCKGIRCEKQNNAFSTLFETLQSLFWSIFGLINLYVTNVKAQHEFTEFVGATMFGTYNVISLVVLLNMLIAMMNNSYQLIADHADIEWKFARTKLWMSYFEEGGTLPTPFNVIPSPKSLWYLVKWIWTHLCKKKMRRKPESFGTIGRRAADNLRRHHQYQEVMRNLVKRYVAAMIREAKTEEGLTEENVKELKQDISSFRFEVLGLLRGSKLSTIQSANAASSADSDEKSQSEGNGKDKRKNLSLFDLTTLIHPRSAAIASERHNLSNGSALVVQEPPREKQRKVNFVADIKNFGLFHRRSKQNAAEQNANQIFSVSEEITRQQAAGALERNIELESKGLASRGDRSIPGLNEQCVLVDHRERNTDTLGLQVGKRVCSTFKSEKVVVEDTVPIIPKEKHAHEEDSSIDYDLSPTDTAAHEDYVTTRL

[10] = cytotoxicity in HEK-293T cells, dose response, cytotoxicity control for TCR NF-kB inhibitor project, luminescence, T-cell screen hits (AID 489026); type: functional, cell-based;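 further: cells exposed to compound about 14 hours before the viability readout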
[11] = target: DNA dC->dU-editing enzyme APOBEC-3G (Homo sapiens, UniProt Q9HC16); type: functional;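 further: Dose-response counterscreen measuring inhibition of APOBEC3G DNA deaminase activity, run while confirming APOBEC3A inhibitors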
Sequence of DNA dC->dU-editing enzyme APOBEC-3G (Q9HC16 whole entry): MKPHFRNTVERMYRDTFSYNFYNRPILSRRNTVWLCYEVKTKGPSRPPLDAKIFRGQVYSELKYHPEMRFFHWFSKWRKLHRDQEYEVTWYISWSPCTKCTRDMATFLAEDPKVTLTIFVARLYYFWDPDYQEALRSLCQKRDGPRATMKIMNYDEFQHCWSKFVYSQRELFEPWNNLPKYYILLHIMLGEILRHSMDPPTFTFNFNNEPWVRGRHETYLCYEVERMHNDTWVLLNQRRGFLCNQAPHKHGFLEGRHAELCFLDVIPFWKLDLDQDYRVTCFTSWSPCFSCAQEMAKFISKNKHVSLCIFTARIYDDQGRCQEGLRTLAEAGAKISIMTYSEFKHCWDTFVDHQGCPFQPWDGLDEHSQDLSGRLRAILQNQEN

[12] = inhibitors of intracellular T. cruzi replication, confirmation, NIH3T3 host cells, beta-gal luminescence (AID 2044); type: functional, cell-based;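 further: intracellular parasites grown in NIH/3T3 mouse fibroblasts as host cells; luminescent beta-galactosidase reporter signal from transgenic T. cruzi replicating inside host cells; inhibitors lower the luminescence signal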
[13] = Luminescence Cell-Based Dose Confirmation HTS to Identify Inhibitors of Platelet Dense Granule Release. [Related pubchem assays: 1663 (Primary HTS), 1678 (Summary of Project)]; type: functional
[14] = cytotoxicity toward NIH3T3 fibroblasts, dose response, counter-screen, cell-based, ATP luminescence, mouse fibroblasts (AID 2010); type: functional;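 further: cells exposed to compound for about 90 hours before reading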
[15] = target: Luciferin 4-monooxygenase (Photinus pyralis, UniProt P08659); test: firefly luciferase enzyme inhibitors, dose response, biochemical, luminescence (AID 1891)
Sequence of Luciferin 4-monooxygenase (P08659 whole entry): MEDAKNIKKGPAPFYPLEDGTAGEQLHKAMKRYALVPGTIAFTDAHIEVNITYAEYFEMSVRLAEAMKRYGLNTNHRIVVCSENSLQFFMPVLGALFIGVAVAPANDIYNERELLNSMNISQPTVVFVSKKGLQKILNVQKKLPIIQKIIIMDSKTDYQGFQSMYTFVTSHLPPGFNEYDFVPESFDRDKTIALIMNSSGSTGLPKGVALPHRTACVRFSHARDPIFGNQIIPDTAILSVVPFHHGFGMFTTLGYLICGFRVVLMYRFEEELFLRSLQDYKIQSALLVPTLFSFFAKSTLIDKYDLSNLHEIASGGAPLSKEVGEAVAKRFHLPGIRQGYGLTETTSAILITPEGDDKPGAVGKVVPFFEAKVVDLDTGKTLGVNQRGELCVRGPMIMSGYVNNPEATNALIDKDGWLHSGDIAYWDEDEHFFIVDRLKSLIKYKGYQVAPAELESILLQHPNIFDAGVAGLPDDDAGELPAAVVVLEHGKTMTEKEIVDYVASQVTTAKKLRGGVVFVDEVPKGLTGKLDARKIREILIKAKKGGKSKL

[16] = target: Polyadenylate-binding protein 1 (Homo sapiens, UniProt P11940); test: PABP poly(A) RNA binding inhibitors, primary screen, biochemical, fluorescence polarization, uHTS (AID 2014)
Sequence of Polyadenylate-binding protein 1 (P11940 whole entry): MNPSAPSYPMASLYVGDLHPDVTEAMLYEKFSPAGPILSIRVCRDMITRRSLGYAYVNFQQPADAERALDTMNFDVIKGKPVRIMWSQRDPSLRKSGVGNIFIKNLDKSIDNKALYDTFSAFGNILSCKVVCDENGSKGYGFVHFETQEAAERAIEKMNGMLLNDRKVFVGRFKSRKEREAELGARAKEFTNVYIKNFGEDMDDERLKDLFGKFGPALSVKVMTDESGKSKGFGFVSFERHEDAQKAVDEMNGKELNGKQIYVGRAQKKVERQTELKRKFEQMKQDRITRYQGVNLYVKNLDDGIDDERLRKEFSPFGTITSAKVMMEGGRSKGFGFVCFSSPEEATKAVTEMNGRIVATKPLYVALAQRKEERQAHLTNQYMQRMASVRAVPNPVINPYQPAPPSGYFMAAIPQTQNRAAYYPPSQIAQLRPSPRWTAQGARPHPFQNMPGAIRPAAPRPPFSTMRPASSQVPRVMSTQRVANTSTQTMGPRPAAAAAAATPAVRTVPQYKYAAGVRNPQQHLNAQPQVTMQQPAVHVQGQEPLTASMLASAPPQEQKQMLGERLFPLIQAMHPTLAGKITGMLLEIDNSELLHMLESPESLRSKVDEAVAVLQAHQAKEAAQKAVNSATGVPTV

[17] = target: DNA dC->dU-editing enzyme APOBEC-3A (Homo sapiens, UniProt P31941); test: Dose Response confirmation of small molecule APOBEC3A DNA Deaminase Inhibitors via a fluorescence-based single-stranded DNA deaminase assay. [Related pubchem assays (depositor defined):AID493011, AID493024]; type: functional
Sequence of DNA dC->dU-editing enzyme APOBEC-3A (P31941 whole entry): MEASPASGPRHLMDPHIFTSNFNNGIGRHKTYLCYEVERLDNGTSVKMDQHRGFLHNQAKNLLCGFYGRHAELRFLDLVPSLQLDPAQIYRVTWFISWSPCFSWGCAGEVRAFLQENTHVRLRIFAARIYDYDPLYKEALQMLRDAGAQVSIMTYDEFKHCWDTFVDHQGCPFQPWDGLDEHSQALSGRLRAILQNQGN

[18] = target: Cyclin-dependent kinase 5/CDK5 activator 1 (Homo sapiens, UniProt Q00535); test: CDK5/p35 kinase inhibitors, dose response, biochemical, cherry-picked samples, set 2 (AID 504545)
Sequence of Cyclin-dependent kinase 5/CDK5 activator 1 (Q00535 whole entry, the tested form may be a part): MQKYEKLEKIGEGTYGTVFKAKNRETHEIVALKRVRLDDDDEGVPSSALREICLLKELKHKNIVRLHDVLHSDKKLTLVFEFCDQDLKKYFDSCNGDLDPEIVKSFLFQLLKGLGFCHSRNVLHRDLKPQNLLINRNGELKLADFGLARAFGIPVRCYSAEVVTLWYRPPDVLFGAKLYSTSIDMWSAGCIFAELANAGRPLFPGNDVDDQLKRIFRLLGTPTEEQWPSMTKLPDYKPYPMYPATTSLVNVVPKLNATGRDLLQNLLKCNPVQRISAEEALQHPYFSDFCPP
Sequence of Cyclin-dependent kinase 5/CDK5 activator 1 (Q15078 whole entry, further chain, the tested form may be a part): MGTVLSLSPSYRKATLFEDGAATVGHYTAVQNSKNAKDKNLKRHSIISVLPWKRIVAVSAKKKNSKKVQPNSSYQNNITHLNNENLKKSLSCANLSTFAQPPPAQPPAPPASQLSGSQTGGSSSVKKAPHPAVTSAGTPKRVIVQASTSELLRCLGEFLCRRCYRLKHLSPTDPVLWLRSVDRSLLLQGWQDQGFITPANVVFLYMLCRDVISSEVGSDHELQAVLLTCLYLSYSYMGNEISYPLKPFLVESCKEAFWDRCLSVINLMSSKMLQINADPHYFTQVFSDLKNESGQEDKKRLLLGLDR

[19] = luciferase reporter signal reduction – luminescence, H4-C neuroglioblastoma cells, dose response (AID 2458); type: functional, cell-based;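 further: H4 neuroglioblastoma cells stably carrying a luciferase reporter gene fusion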
[20] = inhibitors of SNCA 5'UTR-driven reporter translation, confirmation, H4 neuroglioma cells, luminescence (AID 1988); type: functional, cell-based
cells [21] = type: functional, cell-based
[22] = target: Intestinal-type alkaline phosphatase (Mus musculus, UniProt P24822); test: PubChem AID 488874; type: functional
Sequence of Intestinal-type alkaline phosphatase (Mus musculus, UniProt P24822) (P24822 whole entry): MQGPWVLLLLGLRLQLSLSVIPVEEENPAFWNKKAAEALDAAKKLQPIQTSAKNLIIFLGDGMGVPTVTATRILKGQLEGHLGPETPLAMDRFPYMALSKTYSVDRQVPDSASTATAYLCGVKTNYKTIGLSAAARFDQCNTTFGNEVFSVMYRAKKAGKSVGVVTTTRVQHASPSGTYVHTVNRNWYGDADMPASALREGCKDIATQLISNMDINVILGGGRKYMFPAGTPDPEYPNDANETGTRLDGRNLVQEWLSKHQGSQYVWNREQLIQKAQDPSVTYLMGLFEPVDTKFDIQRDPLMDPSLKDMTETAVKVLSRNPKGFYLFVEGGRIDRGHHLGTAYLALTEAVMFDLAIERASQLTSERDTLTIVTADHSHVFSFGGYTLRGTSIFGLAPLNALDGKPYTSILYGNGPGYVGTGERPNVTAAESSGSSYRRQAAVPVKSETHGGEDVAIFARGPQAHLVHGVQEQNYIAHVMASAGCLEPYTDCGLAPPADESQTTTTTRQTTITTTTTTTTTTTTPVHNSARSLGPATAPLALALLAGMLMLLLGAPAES

[23] = inhibitors of SNCA 5'UTR-driven translation, confirmation, luminescence, H4 neuroglioblastoma cells, dose confirmation (AID 2454); type: functional, cell-based;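 further: H4 neuroglioblastoma cells carrying an alpha-synuclein 5'UTR luciferase reporter; potency for inhibition of the luciferase signal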
[24] = target: T3, Intestinal-type alkaline phosphatase (Homo sapiens, UniProt P09923); test: human IAP activators, dose response, biochemical, luminescent, uHTS hits, set 2 (AID 488817); type: functional;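 further: potency of activators that raise enzyme activity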
T3 sequence (P09923 whole entry): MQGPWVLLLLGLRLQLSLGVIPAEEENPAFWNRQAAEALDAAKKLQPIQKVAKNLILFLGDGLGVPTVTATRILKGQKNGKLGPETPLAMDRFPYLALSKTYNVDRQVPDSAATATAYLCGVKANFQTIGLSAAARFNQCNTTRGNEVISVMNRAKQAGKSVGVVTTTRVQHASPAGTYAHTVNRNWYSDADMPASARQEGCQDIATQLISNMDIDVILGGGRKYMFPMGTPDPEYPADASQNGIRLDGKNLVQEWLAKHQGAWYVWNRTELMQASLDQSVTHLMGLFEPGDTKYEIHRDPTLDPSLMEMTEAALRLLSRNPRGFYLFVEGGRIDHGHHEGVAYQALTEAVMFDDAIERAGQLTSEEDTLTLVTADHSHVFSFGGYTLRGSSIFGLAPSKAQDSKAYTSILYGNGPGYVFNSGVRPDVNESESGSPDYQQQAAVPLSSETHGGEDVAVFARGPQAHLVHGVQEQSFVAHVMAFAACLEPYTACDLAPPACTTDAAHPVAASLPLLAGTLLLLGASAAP

[25] = target: T3, Intestinal-type alkaline phosphatase; test: human intestinal alkaline phosphatase activators, dose response, biochemical, luminescence, uHTS hits (AID 463120); type: functional
[26] = target: T4, Alkaline phosphatase, tissue-nonspecific isozyme (Homo sapiens, UniProt P05186); test: TNAP enzyme activators, dose response, selectivity assay for human IAP activator project, biochemical, TNAP isozyme, human IAP uHTS hits (AID 488886); type: functional;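 further: potency of compounds raising TNAP activity as a selectivity check on IAP activators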
T4 sequence (P05186 whole entry): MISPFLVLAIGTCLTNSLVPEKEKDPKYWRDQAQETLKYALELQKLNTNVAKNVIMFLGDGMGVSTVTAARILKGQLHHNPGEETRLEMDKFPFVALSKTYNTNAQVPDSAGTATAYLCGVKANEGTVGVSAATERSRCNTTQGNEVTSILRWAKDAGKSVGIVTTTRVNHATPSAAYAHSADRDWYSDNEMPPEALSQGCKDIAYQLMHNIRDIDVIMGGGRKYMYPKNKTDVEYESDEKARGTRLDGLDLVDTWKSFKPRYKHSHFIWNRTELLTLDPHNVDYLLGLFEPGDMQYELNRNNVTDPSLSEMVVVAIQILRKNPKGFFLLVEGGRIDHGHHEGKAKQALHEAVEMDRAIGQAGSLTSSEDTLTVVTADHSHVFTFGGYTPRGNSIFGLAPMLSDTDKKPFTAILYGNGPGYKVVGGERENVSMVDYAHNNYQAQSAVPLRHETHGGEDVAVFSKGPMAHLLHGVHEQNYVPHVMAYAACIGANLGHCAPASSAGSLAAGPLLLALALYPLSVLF

Sequence of SUMO-activating enzyme (Q9UBE0 whole entry): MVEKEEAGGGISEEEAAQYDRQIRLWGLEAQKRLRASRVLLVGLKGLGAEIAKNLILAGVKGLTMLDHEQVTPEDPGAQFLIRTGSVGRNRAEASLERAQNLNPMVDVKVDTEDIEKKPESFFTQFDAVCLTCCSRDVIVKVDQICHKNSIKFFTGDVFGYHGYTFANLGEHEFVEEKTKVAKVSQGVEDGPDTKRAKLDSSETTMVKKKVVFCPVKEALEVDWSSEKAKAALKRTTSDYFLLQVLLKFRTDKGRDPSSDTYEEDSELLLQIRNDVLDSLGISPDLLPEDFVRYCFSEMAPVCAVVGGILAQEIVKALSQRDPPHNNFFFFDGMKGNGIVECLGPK
Sequence of SUMO-activating enzyme (Q9UBT2 whole entry): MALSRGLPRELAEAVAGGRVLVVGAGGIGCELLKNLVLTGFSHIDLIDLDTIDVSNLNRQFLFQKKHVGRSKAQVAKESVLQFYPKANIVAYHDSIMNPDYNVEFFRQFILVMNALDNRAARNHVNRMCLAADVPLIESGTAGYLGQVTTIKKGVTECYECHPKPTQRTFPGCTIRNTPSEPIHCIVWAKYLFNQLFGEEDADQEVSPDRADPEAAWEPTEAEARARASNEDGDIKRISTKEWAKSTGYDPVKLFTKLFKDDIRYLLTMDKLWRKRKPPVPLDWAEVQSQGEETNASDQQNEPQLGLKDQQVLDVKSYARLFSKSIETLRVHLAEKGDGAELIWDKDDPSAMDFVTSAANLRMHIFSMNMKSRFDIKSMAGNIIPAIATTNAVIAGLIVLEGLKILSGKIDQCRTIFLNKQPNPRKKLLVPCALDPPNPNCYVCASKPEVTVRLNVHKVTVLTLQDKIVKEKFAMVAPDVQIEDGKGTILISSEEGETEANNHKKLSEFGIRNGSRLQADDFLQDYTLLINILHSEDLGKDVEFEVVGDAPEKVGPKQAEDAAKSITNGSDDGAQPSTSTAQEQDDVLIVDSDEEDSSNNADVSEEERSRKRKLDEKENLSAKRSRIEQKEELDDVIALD

## CCCCOc1ccc(/C=C/C(=O)Nc2ccc(C(N)=O)cc2)cc1
SUMO-activating enzyme
  IC50: 96.7 µM (active)

## C=CCSc1nsc(NC(=O)Nc2ccc(F)cc2)n1
Streptococcus
  EC50: 30.4 µM (active)
Exodeoxyribonuclease V
  IC50: > 119 µM (inactive)
HEK293 [1]
  IC50: 2.93 µM (active)
Streptokinase A
  EC50: 23.4 µM (active)
[2]
  IC50: > 119 µM (inactive)
HEK293 [3]
  IC50: 10.1 µM (active)
INS1
  AC50: 3.1 µM (active)
HEK293 [4]
  EC50: 3.56 µM (active)
[5]
  EC50: 8.13 µM (active)
HEK293 [6]
  IC50: 2.64 µM (active)

## CCCCCn1c2c(c(=N)c3ccccc31)CCC2
Cells [7]
  EC50: 0.006 µM (active)
[8]
  IC50: > 100 µM (inactive)
[9]
  EC50: 1.5 µM (active)
[10]
  IC50: > 80 µM (inactive)
[11]
  IC50: 3.19 µM (active)
[12]
  EC50: < 0.1 µM (active)
[13]
  EC50: 0.788 µM (active)
[14]
  EC50: > 60 µM (not active)
[15]
  EC50: > 112 µM (not active)
[16]
  IC50: 5.93 µM (active)
[17]
  IC50: 2.62 µM (active)

## Cc1nn(-c2nccs2)c2c1C(=O)CC(C)(C)C2Br (stereo unspecified)
[18]
  AC50: 7.37 µM (active)

## Cc1c(C(=O)N/N=C/c2c(O)ccc3ccccc23)nnn1-c1nonc1N
[19]
  EC50: 0.898 µM (active)
Streptococcus
  EC50: > 150 µM (not active)
[20]
  EC50: < 0.1 µM (active)
Cells [21]
  EC50: 0.958 µM (active)
Streptokinase A
  EC50: > 150 µM (not active)
[22]
  IC50: 95.2 µM (active)
INS1
  AC50: 0.317 µM (active)
[10]
  IC50: > 80 µM (inactive)
[5]
  EC50: 5.56 µM (active)
[23]
  EC50: 0.953 µM (active)
[24]
  EC50: 8.92 µM (active)
[25]
  EC50: 7.47 µM (active)
[26]
  EC50: 8.59 µM (active)

Source: ChEMBL document CHEMBL1201862, “PubChem BioAssay data set” (2004)
